Reference: PubChem BioAssay (NCI)
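Each compound was tested at five concentrations against cells in 96-well plates for 48 hours. At the GI50, growth is halved. TGI is the concentration that stops growth completely.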

What was measured:
Assay in all cases: NCI-60 cell line screen, 48 h
MDA-MB-231 breast = test system: MDA-MB-231 breast
A549 NSCLC = test system: A549 NSCLC
KM12 colon = test system: KM12 colon
SK-MEL-28 melanoma = test system: SK-MEL-28 melanoma
RXF 393 renal = test system: RXF 393 renal
786-0 renal = test system: 786-0 renal
SF-539 CNS = test system: SF-539 CNS
HCT-15 colon = test system: HCT-15 colon
SK-OV-3 ovarian = test system: SK-OV-3 ovarian
LOX IMVI melanoma = test system: LOX IMVI melanoma
SK-MEL-5 melanoma = test system: SK-MEL-5 melanoma
COLO 205 colon = test system: COLO 205 colon
UACC-257 melanoma = test system: UACC-257 melanoma
IGROV1 ovarian = test system: IGROV1 ovarian
NCI-H23 lung = test system: NCI-H23 lung
OVCAR-3 ovarian = test system: OVCAR-3 ovarian
NCI/ADR-RES ovarian = test system: NCI/ADR-RES ovarian
UO-31 renal = test system: UO-31 renal
MALME-3M melanoma = test system: MALME-3M melanoma
HL-60(TB) leukemia = test system: HL-60(TB) leukemia
SR leukemia = test system: SR leukemia
SNB-75 CNS = test system: SNB-75 CNS
M14 melanoma = test system: M14 melanoma
T-47D breast = test system: T-47D breast
A498 renal = test system: A498 renal
HOP-62 NSCLC = test system: HOP-62 NSCLC
BT-549 breast = test system: BT-549 breast
HCT-116 colon = test system: HCT-116 colon
TK-10 renal = test system: TK-10 renal
K-562 leukemia = test system: K-562 leukemia
SNB-19 CNS = test system: SNB-19 CNS
EKVX NSCLC = test system: EKVX NSCLC
SK-MEL-2 melanoma = test system: SK-MEL-2 melanoma
PC-3 prostate = test system: PC-3 prostate
NCI-H460 lung = test system: NCI-H460 lung
SF-268 CNS = test system: SF-268 CNS
DU-145 prostate = test system: DU-145 prostate
SF-295 CNS = test system: SF-295 CNS
SN12C renal = test system: SN12C renal
HT29 colon = test system: HT29 colon
MDA-MB-435 = test system: MDA-MB-435
OVCAR-8 ovarian = test system: OVCAR-8 ovarian
HOP-92 NSCLC = test system: HOP-92 NSCLC
UACC-62 melanoma = test system: UACC-62 melanoma
OVCAR-5 ovarian = test system: OVCAR-5 ovarian
HS 578T breast = test system: HS 578T breast
U251 CNS = test system: U251 CNS
NCI-H522 lung = test system: NCI-H522 lung
ACHN renal = test system: ACHN renal
SW-620 colon = test system: SW-620 colon
RPMI-8226 leukemia = test system: RPMI-8226 leukemia
NCI-H226 lung = test system: NCI-H226 lung
MOLT-4 leukemia = test system: MOLT-4 leukemia
CAKI-1 renal = test system: CAKI-1 renal
CCRF-CEM leukemia = test system: CCRF-CEM leukemia
HCC-2998 colon = test system: HCC-2998 colon
OVCAR-4 ovarian = test system: OVCAR-4 ovarian
MCF7 breast = test system: MCF7 breast

## CCN(CC)CCCCCCNc1cccc2cc(Br)cnc12
MDA-MB-231 breast
  GI50: 1.59 µM
  TGI: 4.64 µM
A549 NSCLC
  GI50: 8.07 µM
  TGI: 22.6 µM
KM12 colon
  GI50: 3.56 µM
  TGI: 14.3 µM
SK-MEL-28 melanoma
  GI50: 2.82 µM
  TGI: 6.76 µM
RXF 393 renal
  GI50: 4.52 µM
  TGI: 15.1 µM
786-0 renal
  GI50: 3.39 µM
  TGI: 11.1 µM
SF-539 CNS
  GI50: 6.47 µM
  TGI: 20.8 µM
HCT-15 colon
  GI50: 2.95 µM
  TGI: 10.9 µM
SK-OV-3 ovarian
  GI50: 13.2 µM
  TGI: 26.8 µM
LOX IMVI melanoma
  GI50: 2.64 µM
  TGI: 8.07 µM
SK-MEL-5 melanoma
  GI50: 1.83 µM
  TGI: 3.27 µM
COLO 205 colon
  GI50: 1.87 µM
  TGI: 3.88 µM
UACC-257 melanoma
  GI50: 3.28 µM
  TGI: 9.36 µM
IGROV1 ovarian
  GI50: 3.25 µM
  TGI: 10.9 µM
NCI-H23 lung
  GI50: 5.89 µM
  TGI: 20.7 µM
OVCAR-3 ovarian
  GI50: 8.63 µM
  TGI: 24.8 µM
NCI/ADR-RES ovarian
  GI50: 4.88 µM
  TGI: 20.3 µM
UO-31 renal
  GI50: 3.15 µM
  TGI: 15 µM
MALME-3M melanoma
  GI50: 2.46 µM
  TGI: 5.13 µM
HL-60(TB) leukemia
  GI50: 2 µM
  TGI: 4.65 µM
SR leukemia
  GI50: 3.04 µM
  TGI: 12.6 µM
SNB-75 CNS
  GI50: 2.82 µM
  TGI: 9.17 µM
M14 melanoma
  GI50: 2.05 µM
  TGI: 3.93 µM
T-47D breast
  GI50: 5.31 µM
  TGI: 20 µM
A498 renal
  GI50: 4.28 µM
  TGI: 21.3 µM
HOP-62 NSCLC
  GI50: 10 µM
  TGI: 23.4 µM
BT-549 breast
  GI50: 10.1 µM
  TGI: 22.2 µM
HCT-116 colon
  GI50: 3.39 µM
  TGI: 14.2 µM
TK-10 renal
  GI50: 1.81 µM
  TGI: 3.89 µM
K-562 leukemia
  GI50: 2.08 µM
  TGI: 5.59 µM
SNB-19 CNS
  GI50: 5.77 µM
  TGI: 22.6 µM
EKVX NSCLC
  GI50: 10.2 µM
  TGI: 25.1 µM
SK-MEL-2 melanoma
  GI50: 5.01 µM
  TGI: 18 µM
PC-3 prostate
  GI50: 3.6 µM
  TGI: 17 µM
NCI-H460 lung
  GI50: 4.25 µM
  TGI: 16.5 µM
SF-268 CNS
  GI50: 10.9 µM
  TGI: 27.5 µM
DU-145 prostate
  GI50: 12.7 µM
  TGI: 26.4 µM
SF-295 CNS
  GI50: 2.88 µM
  TGI: 10 µM
SN12C renal
  GI50: 5.92 µM
  TGI: 21 µM
HT29 colon
  GI50: 1.88 µM
  TGI: 4.32 µM
MDA-MB-435
  GI50: 3.76 µM
  TGI: 12.9 µM
OVCAR-8 ovarian
  GI50: 10.1 µM
  TGI: 23.9 µM
HOP-92 NSCLC
  GI50: 2.52 µM
  TGI: 9.44 µM
UACC-62 melanoma
  GI50: 2.07 µM
  TGI: 4.7 µM
OVCAR-5 ovarian
  GI50: 6.25 µM
  TGI: 18.9 µM
HS 578T breast
  GI50: 6.03 µM
  TGI: 28.5 µM
U251 CNS
  GI50: 5.36 µM
  TGI: 17.7 µM
NCI-H522 lung
  GI50: 1.88 µM
  TGI: 4.97 µM
ACHN renal
  GI50: 4.98 µM
  TGI: 17.1 µM
SW-620 colon
  GI50: 3.41 µM
  TGI: 14.7 µM
RPMI-8226 leukemia
  GI50: 3.81 µM
  TGI: 15.5 µM
NCI-H226 lung
  GI50: 11.8 µM
  TGI: 27 µM
MOLT-4 leukemia
  GI50: 3.06 µM
  TGI: 12.1 µM
CAKI-1 renal
  GI50: 2.83 µM
  TGI: 12.4 µM
CCRF-CEM leukemia
  GI50: 3.13 µM
  TGI: 11.2 µM
HCC-2998 colon
  GI50: 3.84 µM
  TGI: 15.4 µM
OVCAR-4 ovarian
  GI50: 5.05 µM
  TGI: 18.9 µM
MCF7 breast
  GI50: 3.02 µM
  TGI: 11.2 µM

## COc1cc2c(Nc3cc(Cl)c(OC)c(Cl)c3)c(C#N)cnc2cc1OCCCN1CCN(C)CC1
MDA-MB-231 breast
  GI50: 2.6 µM
  TGI: 5.2 µM
A549 NSCLC
  GI50: 1.5 µM
  TGI: 4.12 µM
KM12 colon
  GI50: 2.19 µM
  TGI: 10.1 µM
SK-MEL-28 melanoma
  GI50: 1.97 µM
  TGI: 4.53 µM
RXF 393 renal
  GI50: 1.01 µM
  TGI: 2.5 µM
786-0 renal
  GI50: 1.73 µM
  TGI: 4.54 µM
SF-539 CNS
  GI50: 1.01 µM
  TGI: 2.91 µM
HCT-15 colon
  GI50: 1.32 µM
  TGI: 12.1 µM
SK-OV-3 ovarian
  GI50: 0.378 µM
  TGI: 16.6 µM
LOX IMVI melanoma
  GI50: 1.06 µM
  TGI: 2.43 µM
SK-MEL-5 melanoma
  GI50: 1.37 µM
  TGI: 2.71 µM
COLO 205 colon
  GI50: 2.02 µM
  TGI: 3.79 µM
UACC-257 melanoma
  GI50: 1.67 µM
  TGI: 3.07 µM
IGROV1 ovarian
  GI50: 0.189 µM
  TGI: 12 µM
NCI-H23 lung
  GI50: 1.54 µM
  TGI: 4.89 µM
OVCAR-3 ovarian
  GI50: 1.65 µM
  TGI: 4.49 µM
NCI/ADR-RES ovarian
  GI50: 2.46 µM
  TGI: 9.55 µM
UO-31 renal
  GI50: 0.641 µM
  TGI: 5.47 µM
MALME-3M melanoma
  GI50: 1.6 µM
  TGI: 3.7 µM
HL-60(TB) leukemia
  GI50: 1.78 µM
  TGI: 4.03 µM
SR leukemia
  GI50: 1.53 µM
  TGI: 4.41 µM
SNB-75 CNS
  GI50: 6.57 µM
  TGI: 25.2 µM
M14 melanoma
  GI50: 1.1 µM
  TGI: 2.57 µM
T-47D breast
  GI50: 2.02 µM
  TGI: 9.65 µM
A498 renal
  GI50: 0.904 µM
  TGI: 2.61 µM
HOP-62 NSCLC
  GI50: 3.39 µM
  TGI: 12.1 µM
BT-549 breast
  GI50: 3.83 µM
  TGI: 13.8 µM
HCT-116 colon
  GI50: 1.21 µM
  TGI: 3.49 µM
TK-10 renal
  GI50: 0.253 µM
  TGI: 2.43 µM
K-562 leukemia
  GI50: 0.574 µM
  TGI: 8.41 µM
SNB-19 CNS
  GI50: 4.57 µM
  TGI: 14.9 µM
EKVX NSCLC
  GI50: 1.17 µM
  TGI: 18.9 µM
SK-MEL-2 melanoma
  GI50: 1.32 µM
  TGI: 2.9 µM
PC-3 prostate
  GI50: 7.06 µM
  TGI: 20.6 µM
NCI-H460 lung
  GI50: 1.91 µM
  TGI: 8.47 µM
SF-268 CNS
  GI50: 1.9 µM
  TGI: 6.92 µM
DU-145 prostate
  GI50: 1.28 µM
  TGI: 13 µM
SF-295 CNS
  GI50: 2.49 µM
  TGI: 7.45 µM
SN12C renal
  GI50: 0.95 µM
  TGI: 17.2 µM
HT29 colon
  GI50: 0.927 µM
  TGI: 3.25 µM
MDA-MB-435
  GI50: 1.24 µM
  TGI: 3.2 µM
OVCAR-8 ovarian
  GI50: 1.24 µM
  TGI: 4.33 µM
HOP-92 NSCLC
  GI50: 7.83 µM
  TGI: 19.4 µM
UACC-62 melanoma
  GI50: 2.73 µM
  TGI: 7.9 µM
OVCAR-5 ovarian
  GI50: 1.56 µM
  TGI: 11.7 µM
HS 578T breast
  GI50: 2.82 µM
  TGI: 11.5 µM
U251 CNS
  GI50: 1.92 µM
  TGI: 4.05 µM
NCI-H522 lung
  GI50: 0.365 µM
  TGI: 2.17 µM
ACHN renal
  GI50: 0.239 µM
  TGI: 3.58 µM
SW-620 colon
  GI50: 2.18 µM
  TGI: 6.03 µM
RPMI-8226 leukemia
  GI50: 1.47 µM
  TGI: 4.79 µM
NCI-H226 lung
  GI50: 3.39 µM
  TGI: 18.2 µM
MOLT-4 leukemia
  GI50: 1.67 µM
  TGI: 7.92 µM
CAKI-1 renal
  GI50: 0.606 µM
  TGI: 15.1 µM
CCRF-CEM leukemia
  GI50: 2.04 µM
  TGI: 10.8 µM
HCC-2998 colon
  GI50: 1.56 µM
  TGI: 4.1 µM
OVCAR-4 ovarian
  GI50: 1.9 µM
  TGI: 11.3 µM
MCF7 breast
  GI50: 2.58 µM
  TGI: 12.6 µM
